Results on one compound are retold here after patent US20250041209A1, “THERMOSENSITIVE MODIFIED CHITIN SPONGE DRUG-LOADED IMPLANTED SUSTAINED-RELEASE SYSTEM, PREPARATION METHOD THEREFORE, AND USE THEREOF” (priority 2022, published 2025).

Structures can show the parent of a compound that is named as a salt.

In the test the test system is cutaneous trunci muscle reflex. Description: guinea pig pin-prick assay, local anesthetic efficacy of subcutaneously implanted sponges. The format is in vivo. The settings on record: subcutaneous implant (sponge about 0.5 g) or 0.5 mL solution injected, n=6. The text has this:
To evaluate in vivo the local anesthetic efficacy of the drug-loaded implanted thermosensitive hydroxypropyl chitin sponges prepared in Example 1, guinea pig pin-prick assay was employed in this invention. Guinea pigs (around 300 g) were induced and maintained with isoflurane. Then the left backs of guinea pigs were shaved before treatment. One longitudinal skin incision with 1.5 cm in length was made by a scalpel at 2 cm left of ridge midline on the back of the guinea pig. Subsequently, one cuboid sponge about 0.5 g (1 cm×1 cm×0.5 cm) was put right in the middle of the incision below the skin. The incision was finally stitched up. 36 animals were randomly divided into six experimental groups with each of 6: group 1: BPV-loaded 0.8B %-HPCH (3.6 wt %) sponge, group 2: 0.8B %-collagen/HPCH (0.6/3.0 wt %) sponge, group 3: 1.2B %-HPCH (3.6 wt %) sponge, group 4: 2.4B %-HPCH (3.6 wt %) sponge, 0.8%-BPV group 5 (0.8 wt % BPV solution) and sham-operated group 6. As for sham-operated group, the incision was made and stitched up without placing a sponge. For BPV solution group, a volume of 0.5 mL 0.8% BPV solution was injected subcutaneously near the skin incision using 30-gage hypodermic needle. […] The nociceptive blockade score (N %) was calculated as following equation: N %=n/8×100%. […]

Take `CCCCN1CCCCC1C(=O)Nc1c(C)cccc1C` (stereo not shown) [0.8%-BPV, bupivacaine hydrochloride]: the “effective duration of blockade (time with nociceptive blockade score≥50%)” value is 1 h.
